Entries after “also recorded” stand apart in the source; their conditions may differ. Like-named read-outs stand apart in the source and are kept apart here.
Legend:
[1] = target: T1, lecithin retinol acyl transferase (LRAT) (Bos taurus, UniProt Q9BGL2); assay: in vitro Microsomal Assay of retinol esterification, LRAT catalysed (retinyl laurate formation); details: for % INHIB. LRAT: Table 5; for % INHIBITION, LRAT: Table 6A, 100µM
T1 sequence (Q9BGL2 1-230): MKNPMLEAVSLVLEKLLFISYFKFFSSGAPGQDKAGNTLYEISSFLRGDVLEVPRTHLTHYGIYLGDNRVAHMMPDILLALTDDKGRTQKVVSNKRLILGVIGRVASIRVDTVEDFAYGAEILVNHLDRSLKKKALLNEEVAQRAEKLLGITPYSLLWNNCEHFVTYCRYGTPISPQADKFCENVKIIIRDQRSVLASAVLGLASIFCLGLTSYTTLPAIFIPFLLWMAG
Description: (§3) A solution containing 0.1M sodium phosphate pH 7 buffer, 5mM dithiothreitol, 2 mg/ml bovine serum albumin, 40 micromolar palmitoyl CoA, 40 micromolar dilauroyl phosphatidyl choline, 10 micromolar retinol and a test compound or solvent blank, was incubated for 1 hour at 37°C with a microsomal fraction isolated from bovine retinal pigment epithelial cells. After incubation, the reaction was quenched by addition of an equal volume of ethanol, and the retinyl esters formed (retinyl palmitate from the ARAT catalysed reaction, and retinyl laurate from the LRAT catalysed reaction) were extracted with hexane.

[2] = system: LRAT and ARAT catalysed retinol esterification; assay: in vitro Microsomal Assay, overall verdict on retinol esterification (LRAT and ARAT); details: verdict on the table results
Description: as §3

[3] = system: acyl CoA retinol transferase (ARAT); assay: in vitro Microsomal Assay of retinol esterification, ARAT catalysed (retinyl palmitate formation)
Description: as §3

[4] = system: procollagen-I synthesis in human dermal fibroblasts; assay: Dot blot assay for procollagen-I protein in dermal fibroblast conditioned medium; format: cell-based; details: 24 hours, control = 100%
Description: (§1) Primary human foreskin fibroblasts at passage 2 (P2) were seeded into 12-well plates at 10000 cells/cm^2 and maintained for 24 hours in an atmosphere of 5% carbon dioxide and 4% oxygen in Dulbeccos Modified Eagles Medium (DMEM) supplemented with 10% foetal calf serum. After this time the cells were washed with serum free DMEM and then incubated in fresh serum free DMEM for a further 60 hours. The fibroblast monolayers were then washed again with serum free DMEM. Test reagents and vehicle controls were added to the cells in triplicate in a final volume of 0.4ml/well fresh serum free DMEM and incubated for a further 24 hours. This fibroblast conditioned medium was either analysed immediately or snap frozen in liquid nitrogen and stored at -70°C for future analysis. The cells were then counted and data from the dot-blot analysis subsequently standardised to cell number. […]
(§2) At the end of this time the exposed screen was scanned by a phosphorimager (Molecular Dynamics Phosphorimager SF) using ImageQuant™ software. Dot intensity was assessed by computer-assisted image analysis using the quantification tools in ImageQuant™, standardised to cell number and the effects of various test reagents on decorin and procollagen-I synthesis were determined relative to a vehicle treated control value of 100 arbitrary units. […]

[5] = system: decorin synthesis in human dermal fibroblasts; assay: Dot blot assay for decorin protein in dermal fibroblast conditioned medium; format: cell-based; details: 24 hours, relative to vehicle control = 100
Description: as §1, §2

CCCCCCCCCCCCC/C=C/[C@@H](O)[C@H](CO)NC(C)=O [Acetyl Sphingosine]
% INHIB. LRAT ([1]; 10 μM): 10%
% INHIB. LRAT ([1]; 100 μM): 50%
retinol esterification inhibition (result in words) [2]: potent retinol esterification inhibitors
% INHIB. ARAT ([3]; Table 5, 10 μM): 19%
% INHIB. ARAT ([3]; Table 5, 100 μM): 62%

CC1=CCCC(C)(C)C1/C=C/C(C)O (stereo not drawn) [Alpha ionol]
inhibition at 100 µM ([1]; read-out: % INHIBITION, LRAT): 0%

CCC(=O)/C=C/C1C(C)=CCCC1(C)C (stereo not drawn) [Alpha methyl ionone]
% INHIBITION, LRAT [1]: 77%
% INHIBITION, ARAT ([3]; Table 6A, 100µM): 67%

C/C=C/C(=O)C1=C(C)CCCC1(C)C [Beta damascone]
inhibition at 10 µM ([1]; read-out: % INHIBITION, LRAT): 52%
inhibition at 100 µM ([1]; read-out: % INHIBITION, LRAT): 92%

CC1=C(/C=C/C(C)O)C(C)(C)CCC1 (stereo not drawn) [Beta ionol]
inhibition at 100 µM ([1]; read-out: % INHIBITION, LRAT): 0%

CC1=CCC(CCC(C)CO)C1(C)C (centres unmarked) [Brahmanol]
inhibition at 100 µM ([1]; read-out: % INHIBITION, LRAT): 75%
% INHIBITION, ARAT ([3]; Table 6A, 100µM): 70%

CC12CCC(CC1=O)C2(C)C (centres unmarked) [Camphor]
inhibition at 100 µM ([1]; read-out: % INHIBITION, LRAT): 0%
% INHIBITION, ARAT ([3]; Table 7, 100 µM): 0%

C=C(C)C1CC=C(C)C(=O)C1 (centres unmarked) [Carvone]
inhibition at 100 µM ([1]; read-out: % INHIBITION, LRAT): 0%
% INHIBITION, ARAT ([3]; Table 7, 100 µM): 0%

O=CC=Cc1ccccc1 [Cinnamaldehyde]
inhibition at 100 µM ([1]; read-out: % INHIBITION, LRAT): 0%
% INHIBITION, ARAT ([3]; Table 7, 100 µM): 0%

C/C=C/C(=O)C1=C(C)C=CCC1(C)C [Damascenone]
inhibition at 10 µM ([1]; read-out: % INHIBITION, LRAT): 29%
inhibition at 100 µM ([1]; read-out: % INHIBITION, LRAT): 79%

C/C=C/C(=O)C1C(C)C=CCC1(C)C (centres unmarked) [Delta damascone]
inhibition at 10 µM ([1]; read-out: % INHIBITION, LRAT): 64%
inhibition at 100 µM ([1]; read-out: % INHIBITION, LRAT): 95%

CC(=O)CCC1C(C)=CCCC1(C)C (stereo not drawn) [Dihydro alpha ionone]
% INHIBITION, ARAT ([3]; Table 7, 100 µM): 13%

CCOC(=O)C1=C(C)C=CCC1(C)C [Ethyl saffranate]
% INHIBITION, LRAT [1]: 49%

CC12CCC(CC1)C(C)(C)O2 [Eucalyptol]
inhibition at 100 µM ([1]; read-out: % INHIBITION, LRAT): 0%
% INHIBITION, ARAT ([3]; Table 7, 100 µM): 0%

CC(C)=CCCC(C)=CCCC(C)=CCO [Farnesol]
inhibition at 10 µM ([1]; read-out: % INHIB. LRAT): 10%
inhibition at 100 µM ([1]; read-out: % INHIB. LRAT): 43%
retinol esterification inhibition (result in words) [2]: inhibit retinol esterification
% INHIB. ARAT ([3]; Table 8, 10 µM): 20%
% INHIB. ARAT ([3]; Table 8, 100 µM): 43%

CC12CCC(C1)C(C)(C)C2O (centres unmarked) [Fenchyl alcohol]
% INHIBITION, ARAT ([3]; Table 7, 100 µM): 12%

CC(=O)/C(C)=C/C1C(C)=CCCC1(C)C (centres unmarked) [Gamma methyl ionone]
% INHIBITION, LRAT [1]: 38%

CC(C)=CCC/C(C)=C/CC/C(C)=C/CC/C(C)=C/CO [Geranyl Geraniol]
inhibition at 10 µM ([1]; read-out: % INHIB. LRAT): 16%
inhibition at 100 µM ([1]; read-out: % INHIB. LRAT): 77%
retinol esterification inhibition (result in words) [2]: inhibit retinol esterification; also recorded: potent inhibitor of retinol esterification
% INHIB. ARAT ([3]; Table 8, 10 µM): 38%
% INHIB. ARAT ([3]; Table 8, 100 µM): 81%

CC1=CCCC(C)(C)C1/C=C/C(=O)CC(C)C (centres unmarked) [Isobutyl ionone]
% INHIBITION, LRAT [1]: 45%

CC1=CC(C)C(CO)C(C)C1 (centres unmarked) [Isocyclogeraniol]
inhibition at 100 µM ([1]; read-out: % INHIBITION, LRAT): 16%
% INHIBITION, ARAT ([3]; Table 7, 100 µM): 18%

CC=CC(=O)C1CCC(C)(C)C=C1C (centres unmarked) [Isodamascone]
% INHIBITION, LRAT [1]: 92%
% INHIBITION, ARAT ([3]; Table 6A, 100µM): 80%

CCCCC/C=C\C/C=C\CCCCCCCC(=O)N(CCO)CCO [Linoleamide-DEA (LODEA), Linoleamide-DEA]
inhibition at 10 µM ([1]; read-out: % INHIB. LRAT): 11%
inhibition at 100 µM ([1]; read-out: % INHIB. LRAT): 51%
retinol esterification inhibition (result in words) [2]: potent retinol esterification inhibitors

CCCCC/C=C\C/C=C\CCCCCCCC(=O)NCCO [Linoleamide-MEA (LOMEA), Linoleamide-MEA]
retinol esterification inhibition (result in words) [2]: potent retinol esterification inhibitors

CC(C)(O)CCCC1=CCC(C=O)CC1 (centres unmarked) [Lyral]
% INHIBITION, ARAT ([3]; Table 6A, 100µM): 76%

CC(C)[C@@H]1CC[C@@H](C)CC1=O [Mentone]
inhibition at 100 µM ([1]; read-out: % INHIBITION, LRAT): 0%

Cc1ccc(C(C)C)c(O)c1 [Thymol]
inhibition at 100 µM ([1]; read-out: % INHIBITION, LRAT): 0%
% INHIBITION, ARAT ([3]; Table 7, 100 µM): 0%

CC(=O)c1cc2c(cc1C)C(C)(C)C(C)CC2(C)C (centres unmarked) [Tonalid]
inhibition at 100 µM ([1]; read-out: % INHIBITION, LRAT): 33%
% INHIBITION, ARAT ([3]; Table 6A, 100µM): 50%

CC(=O)c1cc2c(cc1C)C(C)(C)[C@H](C)[C@H]2C(C)C [Traseolide]
% INHIBITION, ARAT ([3]; Table 6A, 100µM): 41%

COc1cc(C=O)ccc1O [Vanillin]
inhibition at 100 µM ([1]; read-out: % INHIBITION, LRAT): 0%
% INHIBITION, ARAT ([3]; Table 7, 100 µM): 0%

Nc1ncnc2nc[nH]c12 [adenine]
inhibition at 100 µM ([1]; read-out: % INHIB. LRAT): 0%
% INHIB. ARAT ([3]; Table 5, 100 μM): 0%

CC=CC(=O)C1C(C)=CCCC1(C)C (stereo not drawn) [alpha damascone]
inhibition at 10 µM ([1]; read-out: % INHIBITION, LRAT): 87%
inhibition at 100 µM ([1]; read-out: % INHIBITION, LRAT): 98%
% INHIBITION, ARAT ([3]; Table 6A, 100µM): 83%
% INHIBITION, ARAT ([3]; Table 6B, 10µM): 67%

O=C(NCO)N(CO)C1(CO)C(=O)NC(=O)N1CO (centres unmarked) [diazolidinyl urea]
inhibition at 100 µM ([1]; read-out: % INHIB. LRAT): 0%
% INHIB. ARAT ([3]; Table 5, 100 μM): 0%

Cc1ncc(C[n+]2csc(CCO)c2C)c(N)n1 [thiamine]
inhibition at 100 µM ([1]; read-out: % INHIB. LRAT): 0%
% INHIB. ARAT ([3]; Table 5, 100 μM): 0%

CC1=C(/C=C/C(C)=C/C=C/C(C)=C/C(=O)O)C(C)(C)CCC1 [trans Retinoic acid, reference compound]
Procollagen 1 ([4]; 0.01 µM trans Retinoic acid): 102.8%

N[C@@H](Cc1c[nH]c2ccccc12)C(=O)O [tryptophan]
inhibition at 100 µM ([1]; read-out: % INHIB. LRAT): 0%
% INHIB. ARAT ([3]; Table 5, 100 μM): 0%

O=c1cc[nH]c(=O)[nH]1 [uracil]
inhibition at 100 µM ([1]; read-out: % INHIB. LRAT): 0%
% INHIB. ARAT ([3]; Table 5, 100 μM): 0%

Ceramide 6
Decorin ([5]; 0.01 µM Ceramide 6): 101.2%

Sandalone
% INHIBITION, LRAT [1]: 12%
% INHIBITION, ARAT ([3]; Table 6A, 100µM): 23%

Sandanol
% INHIBITION, LRAT [1]: 43%
% INHIBITION, ARAT ([3]; Table 6A, 100µM): 15%

conjugated linoleic acid [CLA]
Procollagen 1 ([4]; 0.1 µM CLA): 78.9%
Decorin ([5]; 0.1 µM CLA): 96.8%

disodium cocamphodiacetate
% INHIB. LRAT ([1]; 100 μM): 0%

From patent EP1200059B1, “SKIN CARE COMPOSITION” (UNILEVER PLC, priority 1999, dated 2001)
